What was measured:
Conditions in all cases: treatment: drug alone; 5 days
[1] = test system: 769-P; assay: GI50, drug alone; higher = less potent
Protocol: (§1)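 Primary HTS: 8 RCC cell lines treated with 8 doses (up to 10 uM) of each library drug alone for 5 days; viability read by CellTiter-Glo and normalised to DMSO. GI50 was fitted with XLfit (4-parameter), AUC is the area under the dose-response curve, and minimum viability is the lowest fraction of DMSO viability across doses.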

[2] = test system: 786-O; assay: GI50, drug alone; higher = less potent
Protocol: as §1

[3] = test system: A498; assay: GI50, drug alone; higher = less potent
Protocol: as §1

[4] = test system: ACHN; assay: GI50, drug alone; higher = less potent
Protocol: as §1

[5] = test system: CAKI-1; assay: GI50, drug alone; higher = less potent
Protocol: as §1

[6] = test system: SN12C; assay: GI50, drug alone; higher = less potent
Protocol: as §1

[7] = test system: TK-10; assay: GI50, drug alone; higher = less potent
Protocol: as §1

[8] = test system: UO-31; assay: GI50, drug alone; higher = less potent
Protocol: as §1

[9] = test system: 769-P; assay: minimum viability across doses, drug alone, relative to DMSO (fraction); higher = less growth inhibition
Protocol: as §1

[10] = test system: 786-O; assay: as above
Protocol: as §1

[11] = test system: A498; assay: as above
Protocol: as §1

[12] = test system: ACHN; assay: as above
Protocol: as §1

[13] = test system: CAKI-1; assay: as above
Protocol: as §1

[14] = test system: SN12C; assay: as above
Protocol: as §1

[15] = test system: TK-10; assay: as above
Protocol: as §1

[16] = test system: UO-31; assay: as above
Protocol: as §1

[17] = test system: 769-P; assay: AUC of dose-response viability curve, drug alone (arbitrary (AUC of normalised viability)); higher = less growth inhibition
Protocol: as §1

[18] = test system: 786-O; assay: as above
Protocol: as §1

[19] = test system: A498; assay: as above
Protocol: as §1

[20] = test system: ACHN; assay: as above
Protocol: as §1

[21] = test system: CAKI-1; assay: as above
Protocol: as §1

[22] = test system: SN12C; assay: as above
Protocol: as §1

[23] = test system: TK-10; assay: as above
Protocol: as §1

[24] = test system: UO-31; assay: as above
Protocol: as §1

SMILES	GI50, drug alone [1] [µM]	GI50, drug alone [2] [µM]	GI50, drug alone [3] [µM]	GI50, drug alone [4] [µM]	GI50, drug alone [5] [µM]	GI50, drug alone [6] [µM]	GI50, drug alone [7] [µM]	GI50, drug alone [8] [µM]	minimum viability across doses [9]	minimum viability across doses [10]	minimum viability across doses [11]	minimum viability across doses [12]	minimum viability across doses [13]	minimum viability across doses [14]	minimum viability across doses [15]	minimum viability across doses [16]	AUC of dose-response viability curve [17]	AUC of dose-response viability curve [18]	AUC of dose-response viability curve [19]	AUC of dose-response viability curve [20]	AUC of dose-response viability curve [21]	AUC of dose-response viability curve [22]	AUC of dose-response viability curve [23]	AUC of dose-response viability curve [24]
COc1cc(Nc2ncc(F)c(Nc3ccc4c(n3)N(COP(=O)([O-])[O-])C(=O)C(C)(C)O4)n2)cc(OC)c1OC.[Na+].[Na+]	5.08	1.24	> 10	0.973	1.02	3.32	5.18	9.63	0.119	0.125	0.898	0.0693	0.035	0.303	0.418	0.0974	3.1	2.1	3.85	2.42	2.49	2.73	2.53	4
CCc1cccc(CC)c1NC(=O)N1Cc2[nH]nc(NC(=O)c3ccc(N4CCN(C)CC4)cc3)c2C1	> 10	0.915	> 10	3.39	2.92	2.15	5.38	> 10	0.87	0.0395	0.679	0.233	0.262	0.238	0.336	0.811	3.41	2.21	3.29	2.85	2.76	2.76	2.92	3.85
Cc1cnc(Nc2ccc(OCCN3CCCC3)cc2)nc1Nc1cccc(S(=O)(=O)NC(C)(C)C)c1	3.4	1.9	5.64	0.662	1.03	2.31	0.758	2.74	0.0319	0.00721	0.0772	0.00347	0.00962	0.00707	0.00422	0.013	3.09	2.76	3.49	2.25	2.54	2.71	2.19	3.79
Cc1cccc(-c2nc(C(C)(C)C)[nH]c2-c2ccc3nccnc3c2)n1	> 10	> 10	9.45	> 10	> 10	5.55	> 10	> 10	0.795	0.589	0.302	0.87	0.603	0.21	0.676	0.569	3.25	2.63	3.88	3.38	3.35	3.02	2.9	5.79
Cc1[nH]c(/C=C2/C(=O)Nc3ccc(S(=O)(=O)N(C)c4cccc(Cl)c4)cc32)c(C)c1C(=O)N1CCN(C)CC1	> 10	5.22	> 10	0.0547	8.22	8.02	> 10	> 10	0.763	0.265	0.916	0.247	0.425	0.412	0.753	1.15	3.4	2.76	3.89	2.06	3.3	3.01	3.36	4.97
CC(C)(C)c1cnc(CSc2cnc(NC(=O)C3CCNCC3)s2)o1	1.44	0.134	0.147	0.258	0.558	0.149	0.501	0.269	0.0214	0.0038	0.00845	0.00527	0.0689	0.012	0.156	0.0096	2.51	1.5	1.58	1.76	2.39	1.69	2.22	1.87
O=C1NC(=O)C(c2ccccc2[N+](=O)[O-])=C1Nc1ccc(O)c(Cl)c1	> 10	> 10	> 10	> 10	> 10	> 10	> 10	> 10	0.898	0.559	0.922	0.879	0.869	0.802	0.804	0.634	3.29	2.33	3.58	3.39	3.4	3.05	3.02	4
Nc1nc(N)c2nc(-c3cccc(O)c3)cnc2n1	> 10	2.47	9.22	5.79	6.29	3.88	5.11	> 10	0.971	0.0664	0.252	0.35	0.275	0.254	0.32	0.588	3.59	2.45	3.31	3.02	3.43	2.97	2.98	4.59
CCn1c(N)c(C(=O)NC)c(=O)c2ccc(C#C[C@@](C)(O)COC)nc21	> 10	> 10	> 10	> 10	> 10	> 10	> 10	> 10	1.02	0.869	0.887	0.909	0.845	0.849	0.9	0.992	3.92	3.31	3.88	3.52	3.62	3.44	3.45	4.24
CNC(=O)c1nn(C)c2c1C(C)(C)Cc1cnc(Nc3ccc(N4CCN(C)CC4)cc3)nc1-2	1	0.366	4.8	0.0953	0.174	0.957	0.311	1.33	0.0249	0.00535	0.0273	0.0129	0.0591	0.0145	0.177	0.0155	2.48	2.22	3.76	1.53	1.81	2.54	2.06	2.64
Oc1ccc(-c2nc(-c3ccc(F)cc3)c(-c3ccncc3)[nH]2)cc1	> 10	> 10	> 10	9.97	> 10	> 10	> 10	> 10	0.904	0.65	1.02	0.473	0.637	0.936	0.659	0.308	3.41	3.04	4.09	2.91	3.25	3.4	2.88	4.47
NC(=O)c1ccc(-c2nc(-c3ccc4c(c3)OCO4)c(-c3ccccn3)[nH]2)cc1	> 10	> 10	> 10	> 10	> 10	> 10	> 10	> 10	0.838	0.578	0.906	0.564	0.723	0.556	0.613	0.941	3.26	2.72	3.96	3.21	3.3	2.86	2.89	4.85
Cn1cc(C2=C(c3ccc(Cl)cc3Cl)C(=O)NC2=O)c2ccccc21	8.53	> 10	> 10	> 10	> 10	> 10	> 10	> 10	0.386	0.814	0.907	0.821	0.839	0.908	0.629	0.801	3.2	3.26	3.79	3.26	0.987	3.43	3.26	3.98
O=C1NCCc2[nH]c(-c3ccncc3)cc21	> 10	0.539	3.53	1.67	4.96	3.68	3.62	2.46	0.75	0.00414	0.0125	0.0193	0.12	0.0279	0.188	0.00654	3.24	2.22	3.22	2.7	3.31	3.27	2.88	3.43
O=C1c2ccccc2-c2n[nH]c3cccc1c23	> 10	> 10	> 10	8.89	6.06	> 10	> 10	> 10	0.799	0.545	0.999	0.421	0.251	0.822	0.562	0.52	3.24	2.81	4.19	3.44	3.09	3.37	3.07	3.08
N#CC[C@H](C1CCCC1)n1cc(-c2ncnc3[nH]ccc23)cn1	> 10	8.76	> 10	> 10	> 10	> 10	> 10	> 10	0.876	0.433	1.24	0.779	0.965	0.945	0.833	1.25	3.4	3.06	4.75	3.14	3.82	3.53	3.2	4.92
CS(=O)c1ccc(-c2nc(-c3ccc(F)cc3)c(-c3ccncc3)[nH]2)cc1 (stereo not given)	> 10	> 10	> 10	0.142	> 10	> 10	> 10	> 10	0.892	0.774	1.12	0.577	0.931	0.84	0.713	1.06	3.37	3.47	4.51	2.51	3.69	3.43	2.98	4.33
CN(C)CCOc1ccc(-c2nc(-c3ccncc3)c(-c3ccc4c(c3)CC/C4=N/O)[nH]2)cc1	8.71	7.91	8.04	8.61	9.32	> 10	> 10	> 10	0.177	0.0071	0.0435	0.167	0.308	0.706	0.575	0.573	3.44	2.94	4.26	3.51	3.77	3.3	3.35	5.65
CC(C)CC(=O)Nc1n[nH]c2c1CN(C(=O)C1CCN(C)CC1)C2(C)C	4.34	0.12	1.48	0.276	1.77	0.262	3.08	1.06	0.189	0.0023	0.00722	0.0324	0.0863	0.0129	0.174	0.00653	3.01	1.4	2.94	1.92	2.75	1.9	2.7	3
OCc1ccc(-c2ccc(-c3ccc(CO)s3)o2)s1	0.0427	0.0275	7.46	0.18	0.0112	0.582	0.0294	0.389	0.056	0.00113	0.419	0.0234	0.00454	0.0662	0.032	0.0063	1.27	1.04	3.4	1.76	0.628	2.29	1.03	2.33

— the supplement of paper PMC8149375
